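Five concentrations, 48 hours, 96-well plates. The concentration for 50% growth inhibition is given as GI50. TGI denotes the concentration required for complete inhibition of growth.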
Key:
Assay in all cases: DTP human tumour cell line panel, 48 h
SW-620 colon = test system: SW-620 colon
OVCAR-3 ovarian = test system: OVCAR-3 ovarian
UACC-62 melanoma = test system: UACC-62 melanoma
NCI-H226 lung = test system: NCI-H226 lung
786-0 renal = test system: 786-0 renal
NCI-H23 lung = test system: NCI-H23 lung
CCRF-CEM leukemia = test system: CCRF-CEM leukemia
MDA-MB-435 = test system: MDA-MB-435
NCI-H460 lung = test system: NCI-H460 lung
A498 renal = test system: A498 renal

| Compound | TGI (SW-620 colon) | TGI (OVCAR-3 ovarian) | TGI (UACC-62 melanoma) | TGI (NCI-H226 lung) | TGI (786-0 renal) | TGI (NCI-H23 lung) | TGI (CCRF-CEM leukemia) | TGI (MDA-MB-435) | TGI (NCI-H460 lung) | TGI (A498 renal) | GI50 (SW-620 colon) | GI50 (OVCAR-3 ovarian) | GI50 (UACC-62 melanoma) | GI50 (NCI-H23 lung) | GI50 (NCI-H460 lung) | GI50 (A498 renal) |
| --- | --- | --- | --- | --- | --- | --- | --- | --- | --- | --- | --- | --- | --- | --- | --- | --- |
| Nc1nc(Nc2ccccc2)sc1C(=O)c1c[nH]c2ccccc12 | 31.2 µM | 26.6 µM | 28.9 µM | 29.7 µM | 18.2 µM | 49.2 µM | 14.5 µM | 23.2 µM | 13.6 µM | 30.6 µM | – | – | – | – | – | – |
| Clc1ccc(Cl)c(SCCCN2CCNCC2)c1 | 56.7 µM | 47.4 µM | 7.85 µM | 43.4 µM | 52.1 µM | 39.8 µM | 50.5 µM | 41.4 µM | 42.1 µM | 28.2 µM | – | – | – | – | – | – |
| O=C([CH-]C(=O)c1ccccc1)c1ccccc1.O=C([CH-]C(=O)c1ccccc1)c1ccccc1.[O]=[U+2]=[O] | > 100 µM | 4.79 µM | 6.91 µM | – | – | > 100 µM | – | – | 13.1 µM | 7.89 µM | 3.15 µM | 1.81 µM | 2.43 µM | 4.01 µM | 1.99 µM | 2.59 µM |
| NC(=O)c1ncn2c1NC(=O)CC2 | > 100 µM | > 100 µM | > 100 µM | > 100 µM | – | > 100 µM | > 100 µM | – | > 100 µM | > 100 µM | – | – | – | – | – | – |
| O=C(CCc1cccc(O)c1)NCCCNC(=O)CCc1cccc(O)c1 | > 100 µM | > 100 µM | > 100 µM | – | > 100 µM | > 100 µM | > 100 µM | > 100 µM | > 100 µM | > 100 µM | – | – | – | – | – | – |
| O=C1c2cccc(NCCNCCO)c2C(=O)c2cccc(NCCNCCO)c21 | 11 µM | 4.74 µM | 3.81 µM | 3.51 µM | 3.95 µM | 5.68 µM | 2.88 µM | – | 7.43 µM | 7.44 µM | – | – | – | – | – | – |
| C[C@]1(S(=O)(=O)c2ccccc2)C[C@H]2N(Cc3ccccc3)[C@@H]1CCC21OCCO1 | > 100 µM | > 100 µM | > 100 µM | – | > 100 µM | > 100 µM | > 100 µM | > 100 µM | > 100 µM | – | – | – | – | – | – | – |
| Cc1cc(/N=C/c2ccc(C#N)cc2)n(-c2ccccc2)n1 | > 100 µM | > 100 µM | > 100 µM | > 100 µM | > 100 µM | > 100 µM | > 100 µM | > 100 µM | > 100 µM | – | – | – | – | – | – | – |
| CC(C)(C)C(=O)C(Cc1ccccc1)C(=O)C(C)(C)C | > 100 µM | > 100 µM | – | > 100 µM | > 100 µM | > 100 µM | > 100 µM | – | > 100 µM | > 100 µM | – | – | – | – | – | – |
| CCCCC#CS(=O)(=O)C(F)(F)F | > 100 µM | > 100 µM | 99.6 µM | > 100 µM | – | > 100 µM | > 100 µM | – | > 100 µM | > 100 µM | – | – | – | – | – | – |
| Cc1cn2c(C)csc2c1P(=O)(OC(C)C)OC(C)C | > 100 µM | > 100 µM | > 100 µM | – | > 100 µM | > 100 µM | > 100 µM | > 100 µM | > 100 µM | > 100 µM | – | – | – | – | – | – |
| OCC(O)C(O)C(O)/C=N/Nc1nc(O)c(/C=C2\C=Nc3ccccc32)[nH]1 (centres undefined) | > 100 µM | > 100 µM | > 100 µM | > 100 µM | > 100 µM | > 100 µM | > 100 µM | > 100 µM | > 100 µM | – | – | – | – | – | – | – |
| O=C(CNCc1ccccc1)Oc1c(Cl)c(Cl)c(Cl)c(Cl)c1Cl | 84.5 µM | 62.9 µM | 51.5 µM | 83.1 µM | > 100 µM | > 100 µM | – | > 100 µM | > 100 µM | – | – | – | – | – | – | – |
| NS(=O)(=O)c1ccc(NC(NC(=O)C(C(F)(F)F)C(F)(F)F)(C(F)(F)F)C(F)(F)F)cc1 | > 100 µM | > 100 µM | > 100 µM | > 100 µM | > 100 µM | > 100 µM | > 100 µM | > 100 µM | > 100 µM | – | – | – | – | – | – | – |
| CCCOC(=O)NC(C)C(=O)NC(CCC(=O)NC(CCCC(N)C(=O)O)C(=O)NC(C)C(=O)O)C(=O)O (centres undefined) | 62.3 µM | > 100 µM | 33.7 µM | – | > 100 µM | > 100 µM | 36.9 µM | > 100 µM | > 100 µM | > 100 µM | – | – | – | – | – | – |
| O=c1n(Cc2ccccc2)c(=O)n2c(=O)n(Cc3ccccc3)c(=O)n12 | > 100 µM | – | > 100 µM | > 100 µM | > 100 µM | > 100 µM | > 100 µM | > 100 µM | > 100 µM | > 100 µM | – | – | – | – | – | – |
| CCCCC/C(C=O)=C\c1ccccc1 | > 100 µM | – | > 100 µM | > 100 µM | > 100 µM | > 100 µM | > 100 µM | > 100 µM | > 100 µM | > 100 µM | – | – | – | – | – | – |
| CCOC(=O)C1(C(=O)OCC)CCCN1C(=O)[C@H](CNC(=O)OC(C)(C)C)NC(=O)OCc1ccccc1 | > 100 µM | > 100 µM | – | > 100 µM | > 100 µM | > 100 µM | > 100 µM | > 100 µM | > 100 µM | – | – | – | – | – | – | – |
| COc1cc(C=C2C(=O)NC(=S)NC2=O)cc(OC)c1OC | > 100 µM | > 100 µM | > 100 µM | > 100 µM | > 100 µM | > 100 µM | > 100 µM | > 100 µM | > 100 µM | – | – | – | – | – | – | – |
| Cc1ccc(S(=O)(=O)NC(=O)NNc2ccc(F)cc2)cc1 | > 100 µM | > 100 µM | > 100 µM | > 100 µM | > 100 µM | – | > 100 µM | > 100 µM | > 100 µM | > 100 µM | – | – | – | – | – | – |
| Cc1ccc(-c2c(C#N)c(-c3ccc([N+](=O)[O-])cc3)c(C#N)c(=O)n2NS(=O)(=O)c2ccccc2)cc1 | > 100 µM | – | 64 µM | > 100 µM | > 100 µM | – | 58.3 µM | > 100 µM | > 100 µM | > 100 µM | – | – | – | – | – | – |
| CC1(C)[C@@H](Cn2cnc3c(Cl)nc(N)nc32)CC[C@@]1(C)CO | > 100 µM | > 100 µM | 38 µM | 91.7 µM | > 100 µM | – | > 100 µM | 64.2 µM | – | > 100 µM | – | – | – | – | – | – |
| CC1=CC(=O)CC2(C)CCC(C(C)CC(=O)CC(C)C)CC12 (centres undefined) | 46 µM | – | 59.1 µM | 63.2 µM | 31 µM | > 100 µM | 61.2 µM | 39 µM | > 100 µM | > 100 µM | – | – | – | – | – | – |
